The test system of assay [1] is HPAFII (pancreatic) cells. Kind of assay: Proliferation assay (CellTiter-Glo), HPAFII. The format is cell-based. Conditions: Homo sapiens, HPAF-II, 72 h, 3 days. The method, then:
(§1) A375 (melanoma), Colo-205 (colon cancer), Miapaca (pancreatic), HPAFII (pancreatic), sNF02.0 (neurofibromatosis type 1), sNF96.2 (neurofibromatosis type 1) and 8505 (Thyroid) cells were grown and maintained in RPMI-1640 medium containing 100 U/mL penicillin-streptomycin and 10% fetal bovine serum. Cells were in growth medium in 96-well opaque-walled clear bottom plates and incubated the in the CO2 incubator overnight before treatment. Cells were treated with compounds diluted in DMSO and a 10 point 3-fold serial dilutions were done. Plates were placed in 37° C., 5% CO2 for to incubate for 3 days. Before they were developed by adding 100 μL of CellTiter-Glo reagent (Promega) to the assay plate, plates were shaken briefly for 2 mins and allowed to incubate at rt for 10 mins. The bottom of the plates was pasted with white back seal and luminescence was recorded with Flexstation3 with setting of luminescence, integration time 500 ms.

Assay [2] has as its system A375 (melanoma) cells. Kind of assay: Proliferation assay (CellTiter-Glo), A375. Format: cell-based. The settings on record: Homo sapiens, A-375, 72 h, 3 days. As for the experimental part:
as §1
Background: Cellular ATP, detected with luciferase, serves as a proxy for viable cell number.

Assay [3] deals with Mia Paca-2 (pancreatic) cells. Kind of assay: Proliferation assay (CellTiter-Glo), Mia Paca-2. Conditions: Homo sapiens, 72 h, Mia Paca-2 cells, 3 days. The format is cell-based. As for the experimental part:
as §1

For assay [4], the system named is sNF96.2 (neurofibromatosis type 1) cells. Kind of assay: Proliferation assay (CellTiter-Glo), sNF96.2. Format: cell-based. The settings on record: 72 h, sNF96.2 cells, 3 days. The method, then:
as §1

Assay [5] deals with 8505C (Thyroid) cells. Kind of assay: Proliferation assay (CellTiter-Glo), 8505C. Format: cell-based. Conditions: Homo sapiens, 72 h, 8505C cells, 3 days. As for the experimental part: as §1
For assay [6], the system named is Colo-205 (colon cancer) cells. Kind of assay: Proliferation assay (CellTiter-Glo), Colo-205. Format: cell-based. The settings on record: Homo sapiens, COLO 205, 72 h, Colo205 cells, 3 days. The method, then:
as §1

For assay [7], the target named is Activated ERK1 (Homo sapiens (Human), UniProt P27361). Kind of assay: Active ERK1 kinase assay (Mobility Shift Assay). The format is biochemical. The method, boiled down:
(§2)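 Readout is LabChip mobility-shift, product ratio P/(P+S) from peak heights after a 1 h rt kinase reaction started by adding fluorescent substrate, ATP and metal. Beforehand, enzyme and compound were incubated 30 min at rt in HEPES pH7.5 buffer containing Triton X-100 and DTT.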

For assay [8], the system named is sNF02.2 (neurofibromatosis type 1) cells. Nature of the assay: Proliferation assay (CellTiter-Glo), sNF02.2. Format: cell-based. The settings on record: 72 h, sNF02.2 cells, 3 days. The method, then: as §1
Assay [9] concerns the target Activated ERK2 (Homo sapiens (Human), UniProt P28482). Nature of the assay: Active ERK2 kinase assay (Mobility Shift Assay). Format: biochemical. The method, boiled down:
as §2

Some results are limits rather than exact numbers.

One may read the IC50 as the concentration that gives 50% inhibition.

Chain of Activated ERK2 (P28482 whole entry): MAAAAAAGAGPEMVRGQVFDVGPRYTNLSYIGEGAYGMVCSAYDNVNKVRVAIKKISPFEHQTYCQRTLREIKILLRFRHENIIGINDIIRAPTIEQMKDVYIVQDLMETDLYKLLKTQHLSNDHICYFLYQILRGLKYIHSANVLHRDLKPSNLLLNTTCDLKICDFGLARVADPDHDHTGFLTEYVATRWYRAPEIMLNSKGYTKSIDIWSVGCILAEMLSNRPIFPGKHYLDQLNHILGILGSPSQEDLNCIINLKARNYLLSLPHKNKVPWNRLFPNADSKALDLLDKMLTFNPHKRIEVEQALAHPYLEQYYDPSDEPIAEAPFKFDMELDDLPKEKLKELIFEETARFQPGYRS
Chain of Activated ERK1 (P27361 whole entry): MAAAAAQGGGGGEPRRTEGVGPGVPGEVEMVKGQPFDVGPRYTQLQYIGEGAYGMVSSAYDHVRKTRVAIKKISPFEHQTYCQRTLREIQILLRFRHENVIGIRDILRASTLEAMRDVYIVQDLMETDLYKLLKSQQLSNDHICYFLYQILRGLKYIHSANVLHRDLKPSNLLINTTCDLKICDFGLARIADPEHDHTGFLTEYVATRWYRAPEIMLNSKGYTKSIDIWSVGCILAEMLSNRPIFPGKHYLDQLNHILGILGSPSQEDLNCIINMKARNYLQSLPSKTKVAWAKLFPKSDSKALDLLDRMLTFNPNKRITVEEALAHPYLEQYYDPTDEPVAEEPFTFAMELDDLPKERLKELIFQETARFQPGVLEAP

Turning to `CC(C)Nc1cc(-c2c[nH]c(C(=O)N[C@H](CO)c3cccc(Cl)c3)c2)c(Cl)cn1` [BVD-523], the IC50 in assay [1] was at most 500 nM; in [2], at most 500 nM; in assay [3], at most 500 nM; in assay [4] it was 500 to 1000 nM; in assay [5] it was at least 1000 nM; in [6], at most 500 nM. Further, the figures for the IC50 in assay [7] and in [8] were at most 50 nM and at least 1000 nM, respectively.

Take `Cc1cc(-c2n[nH]c3ccc(N4CC[C@]5(CCN(CC(=O)N6CC=C(c7ccc(-c8ncn(C)n8)cc7)CC6)C5)C4=O)cc23)ccn1` [Example 8, (S)-7-(2-(4-(4-(1-Methyl-1H-1,2,4-triazol-3-yl)phenyl)-3,6-dihydropyridin-1(2H)-yl)-2-oxoethyl)-2-(3-(2-methylpyridin-4-yl)-1H-indazol-5-yl)-2,7-diazaspiro[4.4]nonan-1-one]: the IC50 in assay [1], in assay [2], in assay [3], in assay [4], in [5] and in assay [6] was at most 500 nM throughout. Also, the IC50 was at most 50 nM in assay [7], at most 500 nM in [8] and at most 50 nM in assay [9].

Consider `CC(C)Oc1ccc(-c2n[nH]c3ccc(N4CC[C@]5(CCN(CC(=O)N6CC=C(c7ccc(-c8ncn(C)n8)cc7)CC6)C5)C4=O)cc23)cn1` [Example 10, (S)-2-(3-(6-Isopropoxypyridin-3-yl)-1H-indazol-5-yl)-7-(2-(4-(4-(1-methyl-1H-1,2,4-triazol-3-yl)phenyl)-3,6-dihydropyridin-1 (2H)-yl)-2-oxoethyl)-2,7-diazaspiro[4.4]nonan-1-one], for which the IC50 in assay [1] is at most 500 nM; in [2] it was at most 500 nM; in assay [3], at most 500 nM; in assay [4], 500 to 1000 nM; in assay [5] it was at least 1000 nM; in assay [6], at most 500 nM. In addition, the figures for the IC50 in assay [7], in assay [8] and in assay [9] were at most 50 nM, at least 1000 nM and at most 50 nM, respectively.

Turning to `Cn1cnc(-c2ccc(C3=CCN(C(=O)CN4CC[C@]5(CCN(c6ccc7[nH]nc(-c8ccnc(C(F)(F)F)c8)c7c6)C5=O)C4)CC3)cc2)n1` [Example 20, (S)-7-(2-(4-(4-(1-Methyl-1H-1,2,4-triazol-3-yl)phenyl)-3,6-dihydropyridin-1 (2H)-yl)-2-oxoethyl)-2-(3-(2-(trifluoromethyl)pyridin-4-yl)-1H-indazol-5-yl)-2,7-diazaspiro[4.4]nonan-1-one], the IC50 in [2] is at most 500 nM; in assay [6] it was at most 500 nM; in assay [7] it was at most 50 nM; in assay [9], at most 50 nM.

As for `Cn1cnc(-c2ccc(C3=CCN(C(=O)CN4CC[C@]5(CCN(c6ccc7[nH]nc(-c8ccc(F)cc8)c7c6)C5=O)C4)CC3)cc2)n1` [Example 29, (S)-2-(3-(4-Fluorophenyl)-1H-indazol-5-yl)-7-(2-(4-(4-(1-methyl-1H-1,2,4-triazol-3-yl)phenyl)-3,6-dihydropyridin-1(2H)-yl)-2-oxoethyl)-2,7-diazaspiro[4.4]nonan-1-one], the IC50 is at most 500 nM in assay [1]; at most 500 nM in [2]; at most 500 nM in [3]; at most 500 nM in [4]; 500 to 1000 nM in assay [5]; at most 50 nM in [7]. In addition, the values for the IC50 in assay [8] and in assay [9] were at most 500 nM and at most 50 nM, respectively.

For the molecule `Cn1cnc(-c2ccc(C3=CCN(C(=O)CN4CC[C@]5(CCN(c6ccc7[nH]nc(-c8ccnc(C9(C(F)(F)F)CC9)c8)c7c6)C5=O)C4)CC3)cc2)n1` [Example 38, (S)-7-(2-(4-(4-(1-Methyl-1H-1,2,4-triazol-3-yl)phenyl)-3,6-dihydropyridin-1 (2H)-yl)-2-oxoethyl)-2-(3-(2-(1-(trifluoromethyl)cyclopropyl)pyridin-4-yl)-1H-indazol-5-yl)-2,7-diazaspiro[4.4]nonan-1-one], the IC50 is at most 500 nM in assay [1]; at most 500 nM in assay [2]; at most 500 nM in assay [3]; 500 to 1000 nM in assay [4]; at least 1000 nM in assay [5]; at least 1000 nM in assay [8]. In addition, the IC50 in assay [9] was at most 50 nM.

For `O=C(Nc1ccc2[nH]nc(-c3ccncc3)c2c1)[C@@H]1CCN(CC(=O)N2CCN(c3ccc(-c4ncccn4)cc3)CC2)C1` [SCH772984], the IC50 in assay [1] was at most 500 nM; in assay [2], at most 500 nM; in assay [3], at most 500 nM; in [4], 500 to 1000 nM; in assay [5], 500 to 1000 nM; in assay [6], at most 500 nM. The IC50 in assay [7] is at most 50 nM; in assay [8], at most 500 nM.

The record behind these values is patent publication US10493060B2, “Spirocyclic compounds” (ZENO ROYALTIES & MILESTONES, LLC, priority 2015, dated 2019).
